# Data: a melting point compilation (Tetko et al.; mined from patent text by program, amines drawn as free bases though some values may be those of a salt)
row,SMILES,melting point [°C]
1,O=C(Cc1ccccc1)Nc1ccccc1OCc1ccccc1,96 to 98
2,COc1ccc(NC(=O)CN(C(=O)CNC(=O)Nc2cccc(C)c2)c2ccccc2)cc1,194
3,CC1(C)CCSc2cccc(CO)c21,53
4,CCCCCCCCCCCCSc1cc2nc(C(CC)CCCC)oc2cc1[N+](=O)[O-] (configuration not stated),108 to 110
5,CCCC[C@H]1C(=O)CC[C@@]2(C)CC[C@@H]3C[C@]12OC3(C)C,64 to 66
6,COC(=O)c1ccc2c(c1)[C@@H](N1CCCC1=O)[C@H](O)C(C)(C)O2 (relative stereo),190 to 192
7,COC(=O)[C@H](Cc1ccc(OC(C)=O)c(OC(C)=O)c1)NC(=O)CNC(=O)OCc1ccccc1,130 to 131
8,COc1cccc(-c2ccc3c(C(=O)Nc4onc(C)c4C)c(OC)ccc3c2)c1,124
9,CC(C#N)(c1ccccc1)c1cccnn1 (configuration not stated),114 to 115
10,O=[N+]([O-])N(c1ccccc1)c1ccccc1,118
11,CCc1c(C)[nH]c2cc(OCOC)c(Cl)cc2c1=O,217 to 219
12,O=C1Nc2ccncc2C(=O)C1c1c(F)cccc1Cl (configuration not stated),249
13,CC1(C)CC(O)(C(F)(F)F)C(Nc2cccc3[nH]ncc23)c2ccc(Cl)c(O)c21 (configuration not stated),112 to 120
14,COc1ccc2c(c1)c1c3c(c(-c4c(Cl)cccc4OC)cc1n2CCCO)C(=O)NC3=O,224 to 227
15,C=CCC1(CC=C)c2cccc(OC)c2C(=O)c2cccc(Cl)c21,165 to 166
16,COC(=O)CC/C(C)=C/Cc1c(C#N)c2c(c(C)c1OC)COC2=O,87 to 88
17,Cc1nc2cc(NC(=O)c3cc4cc(C(F)(F)F)cnc4n3Cc3ccncc3)ccc2s1,208 to 210
18,COc1ccc2ccccc2c1-c1c(C)c2c(c(C)c1P(c1ccccc1)c1ccccc1)CCC2,166
19,CCSc1ccc2c(c1)NC(=O)C2,125 to 126
20,O=C(Nc1ccc(Cl)c(C(F)(F)F)c1)N[C@H]1CC[C@H](O)CC1,203 to 207
21,CCCC1Nc2ccc(S(=O)(=O)N3CCCCC3)cc2S(=O)(=O)N1 (configuration not stated),147 to 151
22,O=[N+]([O-])c1ccc(Oc2ccc(C(F)(F)F)cc2Cl)cc1CCl,55 to 60
23,COC(=O)c1ccn2ncnc2c1,125 to 126

row,SMILES,melting point [°C]
1,COC(=O)C1C(=O)CCC1CC#N (configuration not stated),49 to 50
2,COC(=O)C(C)(C)NC(=O)Nc1ccc(Cl)c(C(F)(F)F)c1,141 to 142
3,CC=CCn1c(CC)c(C)c2cnnc(OCc3ccc(F)cc3)c21,74 to 76
4,COc1cc2c(c3c1C1CCC3CC1)OC(CN)C2 (configuration not stated),> 210
5,CCOC(=O)C(Cl)C(=O)Nc1ccc(Cl)cc1 (configuration not stated),104 to 105
6,COc1nc2c(cc1NC(=S)N1CCN(c3cc(C)cc(C)c3)CC1)CCC2,159 to 161
7,CC(C)(C)C(=O)Nc1ccc(F)cc1-c1ccc(Cl)c(Cl)c1,130 to 131
8,COc1ccc(CCNC(=O)[C@@H](O)CO)cc1OC1CCCC1,54 to 55
9,CCn1nc(-c2ccc(Cl)cc2[N+](=O)[O-])c2c1CCCC2=O,184
10,C#CCCCCNC(=O)c1cnc(OCC(O)CNC(C)(C)C)s1 (configuration not stated),140 to 148
11,CCc1cn(C2CC(O)C(CNC(=O)C(C)Sc3ccc(Cl)cc3Cl)O2)c(=O)[nH]c1=O (configuration not stated),218 to 220
12,CSc1nncc(C(C)(C)C)n1,91 to 93
13,O=c1ccn(CCO)c(C(O)c2ccccc2OCc2ccccc2)c1OCc1ccccc1 (configuration not stated),196 to 197
14,CCN(CC)C(=O)Nc1ccc2c(c1Cl)C(c1ccccc1F)=NCC(=O)N2C,190 to 191
15,CC1Oc2ccc([N+](=O)[O-])cc2O1 (configuration not stated),84 to 95
16,Cc1ccccc1C(O)C1CCN(C)CC1 (configuration not stated),119 to 123
17,CCCCN=C(N(CCCC)CCCC)N(CCCC)CCCC,100 to 102
18,COc1cc2c(cc1OC)CN(CC(O)CC1(c3noc4cc(F)ccc34)CCNCC1)CC2 (configuration not stated),153 to 154
19,CC(C)(C)c1cc(I)c(O)c(C=O)c1,77
20,CCN1C(=O)C(=CC=C2C=C(c3ccccc3)C=C3N2c2ccccc2C3(C)C)SC1=S,270 to 272
21,CCCCC[C@H]1CC[C@H](C(=O)N[C@@H](C(=O)OCc2ccccc2)[C@@H](C)O)CC1,130 to 134
22,CN(C)C(C)(C)c1ccc(-c2nc(Nc3ccc(-n4cncn4)cc3)ncc2C#N)cc1,235 to 237
23,O=c1ccsn1Cc1ccc(Cl)cc1,88 to 90

# Results, then the compound that gave them:
row,melting point [°C],SMILES
1,166 to 172,CC(C)(C)c1ccc(/C=C/C(=O)Nc2cccc(OCC(=O)O)c2)cc1
2,166 to 167,CCn1cc(C(=O)O)c(=O)cc1-c1ccccc1
3,142 to 143,COCOCc1cccc2c(=O)c(C(=O)O)c(-c3ccccc3)oc12
4,62 to 65,COc1ccc(CCCN2C=CC=C3C2=Nc2ccc(Cl)cc2S(=O)(=O)N3C)cc1
5,123 to 125,O=[N+]([O-])c1ccc(Sc2nccn2-c2ccccc2)cc1
6,139 to 141,CC(=O)N1CCC(Oc2ccc([N+](=O)[O-])cc2C)CC1
7,271 to 272,O=C(O)c1cccc(-c2ccc(-c3ccc(C(F)(F)F)cc3)o2)c1
8,187 to 191,O=C1Cc2cccc(Oc3ccccn3)c2N1
9,181 to 183,CN1CCN(c2ccc(S(=O)(=O)Oc3cc(Cl)c(Cl)cc3Cl)cc2)C1=O
10,198 to 200,O=c1c(Cc2ccncc2)c(-c2ccc(Cl)cc2)[nH]c2c(Br)cc(Br)cc12
11,88 to 90,CCn1ncc2cc3c(nc21)CCc1ccccc1C3=O
12,80.2 to 88.2,Cc1ccc(S(=O)(=O)NC2CCCCN(c3nc4c(c(=O)n(C)c(=O)n4C)n3Cc3ccccc3)C2)cc1 (configuration not stated)
13,153 to 154,CC(CNS(=O)(=O)c1ccc(-c2ccccn2)s1)N1CCC(Oc2ccc(F)c(F)c2)CC1 (configuration not stated)
14,235 to 236,COc1ccc2c(Cc3ccc(O)cc3)c(-c3ccccc3)c(=O)oc2c1
15,216 to 217,O=C(O)CCCOc1cccc(-c2n[nH]c3c2Cc2ccccc2-3)c1
16,217,Cn1c(C(=O)O)cc2c(OCc3ccccc3)cccc21
17,215 to 216,NC(=O)NN=Cc1ccc(OC2CCCCCC2)cc1
18,314 to 315,NC(=O)c1nn(-c2ccc(S(N)(=O)=O)cc2)c2cc(-c3ccc(F)cc3)ccc12
19,116 to 118,Cc1ccc(S(=O)(=O)OCC2Cc3cccc(-c4ccccc4C(F)(F)F)c3O2)cc1 (configuration not stated)
20,185 to 187,COc1ccc(C(=O)n2c(C(=O)O)cc3cc(OC)ccc32)cc1
21,310 to 311,O=c1[nH]nc(-c2ccc(-n3ccnc3)cc2)c2ccccc12
22,52 to 55,Nc1ccc(C(=O)N2Cc3ccccc3Sc3ccccc32)cc1
23,219 to 220,COC(=O)c1cc(C(=O)N(C)C)c2cc(Cc3ccc(F)cc3)cnc2c1O
24,210,O=C(COc1ccc(-c2cc3ccc(OCC(=O)c4ccc(Cl)cc4)cc3s2)cc1)c1ccc(Cl)cc1
25,238,Cc1cc(-c2ccc(Cl)c(Cl)c2)nc(-c2cccc(-c3ccc(S(N)(=O)=O)s3)c2)n1
26,151 to 152,O=Cc1cccc(/C=C/c2nc3cc(F)ccc3s2)c1
